IC50 data for 20 molecules are collected here from patent US9233983B2, “Substituted hetero-bicyclic compounds, compositions and medicinal applications thereof” (ADVINUS THERAPEUTICS LIMITED, priority 2012, dated 2016).

Where two headings read alike, the source gives them in different places. Bounds are passed on as bounds.

Experiment [1] deals with mouse splenocytes. Description: Inhibition of B Cell Activation as Measured by CD69 Expression in Mouse Splenocytes. The following applies: Splenocyte. Type of experiment: cell-based. On the procedure:
Inhibition of B Cell Activation as Measured by CD69 Expression in Mouse Splenocytes:
To test the effect of BTK inhibitors in suppressing B-cell receptor (BCR) mediated activation of B cells, we developed a flow cytometry based assay to analyze CD69 expression in B cell population among total splenocyte from the mouse. […] Finally, cell were cultured in RPMI medium with 10% FBS.
Test compounds were diluted half log starting from 2 mM in 100% DMSO (200×). 1×10^5 splenocytes were incubated with 1 uL of diluted test compounds in 200 uL culture medium in a U-bottom 96 well plate (Greiner) at 37° C. with 5% CO2 for 30 mins. Control wells received 1 uL of 100% DMSO without any compound. The cells were stimulated with 3 ug/mL goat anti-mouse IgM (Sigma, cat#M8644) and incubated for 18-20 hrs. […] Then the cells were washed 3 times with PBS with 1% FBS and analyzed by Guava Easycyte Mini flow cytometer system (Millipore). Flow cytometry data were analyzed using Weasel software (WEHI, Melbourne). First B cells were gated using CD19 markers. Then expression of CD69 was analyzed as percentage of CD69+ve cells within CD19. Percent activity for each data point was calculated using following formula: […]
Percentage activity was fit using sigmoid dose response with variable slope logistic equation in Graph-pad Prism 5 software to determine inhibition constant 50 (IC50).

The target of experiment [2] is human Bruton's Tyrosine Kinase (Btk) (Homo sapiens (Human), UniProt Q06187). Description: Recombinant Human Bruton's Tyrosine Kinase (Btk) Inhibition Assay (HTRF KinEASE-TK). The format is biochemical. Conditions: read-out: hBTK IC50.
Setting [3] is: C57/BL6 splenocytes, 3 ug/mL goat anti-mouse IgM, 18-20 hrs, CD69+ve cells within CD19, read-out: Mouse spleenocyte IC50.
Where [4] appears, read: 20 ng/ml rhBtk, 77 μM ATP (KM), 1 μM TK-Biotin substrate, 90 min.

Chain of human Bruton's Tyrosine Kinase (Btk) (Q06187 whole entry): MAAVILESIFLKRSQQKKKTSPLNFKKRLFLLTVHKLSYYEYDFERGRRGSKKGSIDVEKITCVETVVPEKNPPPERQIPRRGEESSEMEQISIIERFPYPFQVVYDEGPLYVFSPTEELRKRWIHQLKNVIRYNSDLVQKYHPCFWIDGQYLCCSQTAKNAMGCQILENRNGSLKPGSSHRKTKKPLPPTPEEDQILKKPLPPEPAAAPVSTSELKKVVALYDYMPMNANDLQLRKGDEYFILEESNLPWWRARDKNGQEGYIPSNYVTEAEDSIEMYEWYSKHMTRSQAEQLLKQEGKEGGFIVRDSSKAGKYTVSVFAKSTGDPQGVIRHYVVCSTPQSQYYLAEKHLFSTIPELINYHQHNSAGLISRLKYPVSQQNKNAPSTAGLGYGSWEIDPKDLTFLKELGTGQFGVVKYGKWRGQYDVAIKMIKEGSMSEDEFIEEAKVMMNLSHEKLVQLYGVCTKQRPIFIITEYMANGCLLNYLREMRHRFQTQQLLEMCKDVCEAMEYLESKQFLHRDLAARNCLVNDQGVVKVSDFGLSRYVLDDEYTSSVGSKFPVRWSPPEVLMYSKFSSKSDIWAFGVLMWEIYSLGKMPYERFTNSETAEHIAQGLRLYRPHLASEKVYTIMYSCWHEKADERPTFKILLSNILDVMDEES

The term IC50 denotes the concentration at which inhibition is half-maximal. `Cc1c(-c2ncnc3[nH]c(-c4ccc(CN5CCC(O)CC5)cc4)cc23)cccc1N1CCc2cc(C3CC3)ccc2C1=O` [Example B-22, 6-cyclopropyl-2-[3-[6-[4-[(4-hydroxy-1-piperidyl)methyl]phenyl]-7H-pyrrolo[2,3-d]pyrimidin-4-yl]-2-methyl-phenyl]-3,4-dihydroisoquinolin-1-one]: the figures for the IC50 in experiment [1] (setting [3]) and in experiment [2] (setting [4]) were 137 nM and 32.5 nM, respectively.

Take `O=C1c2c(F)cc(C3CC3)cc2OCCN1c1cc(F)cc(-c2ccnc3[nH]c(C4=CCN(C5COC5)CC4)cc23)c1CO` [Example P-16, 8-cyclopropyl-6-fluoro-4-[5-fluoro-2-(hydroxymethyl)-3-[2-[1-(oxetan-3-yl)-3,6-dihydro-2H-pyridin-4-yl]-1H-pyrrolo[2,3-b]pyridin-4-yl]phenyl]-2,3-dihydro-1,4-benzoxazepin-5-one]: the IC50 in experiment [1] (setting [3]) worked out at 9 nM.

As for `N#CCN1CC(n2cc(-c3cc4c(-c5cccc(N6CCOc7cc(C8CC8)ccc7C6=O)c5CO)ccnc4[nH]3)cn2)C1` [Example S-2, 2-[3-[4-[4-[3-(8-cyclopropyl-5-oxo-2,3-dihydro-1,4-benzoxazepin-4-yl)-2-(hydroxymethyl)phenyl]-1H-pyrrolo[2,3-b]pyridin-2-yl]pyrazol-1-yl]azetidin-1-yl]acetonitrile], the IC50 in experiment [1] (setting [3]) is 126 nM; in experiment [2] (setting [4]), 12 nM.

Consider `O=C1c2c(F)cc(C3CC3)cc2OCCN1c1cccc(-c2ccnc3[nH]c(-c4ccc(CN5CCN(C6COC6)CC5)cn4)cc23)c1CO` [Example I-13, 8-cyclopropyl-6-fluoro-4-[2-(hydroxymethyl)-3-[2-[5-[[4-(oxetan-3-yl)piperazin-1-yl]methyl]-2-pyridyl]-1H-pyrrolo[2,3-b]pyridin-4-yl]phenyl]-2,3-dihydro-1,4-benzoxazepin-5-one], for which the figures for the half-maximal inhibitory concentration (IC50) in experiment [1] (setting [3]) and in experiment [2] (setting [4]) were 8 nM and 2 nM, respectively.

Turning to `Cc1c(-c2ncnc3[nH]c(-c4ccc(N5CCN(C)CC5)cc4)cc23)cccc1N1CCOc2cc(C3CC3)ccc2C1=O` [Example C-3, 8-cyclopropyl-4-[2-methyl-3-[6-[4-(4-methylpiperazin-1-yl)phenyl]-7H-pyrrolo[2,3-d]pyrimidin-4-yl]phenyl]-2,3-dihydro-1,4-benzoxazepin-5-one], the IC50 in experiment [1] (setting [3]) worked out at 175 nM; in experiment [2] (setting [4]), 21 nM.

With `Cc1c(-c2nc(N)nc3[nH]c(-c4ccc(CN5CCN(C)CC5)cc4)cc23)cccc1N1CCOc2cc(C3CC3)ccc2C1=O` [Example N-1, 4-[3-[2-amino-6-[4-[(4-methylpiperazin-1-yl)methyl]phenyl]-7H-pyrrolo[2,3-d]pyrimidin-4-yl]-2-methyl-phenyl]-8-cyclopropyl-2,3-dihydro-1,4-benzoxazepin-5-one], the IC50 in experiment [1] (setting [3]) worked out at 61 nM; in experiment [2] (setting [4]) it was 33 nM.

Turning to `CCN(CC)C(=O)N1CC=C(c2cc3c(-c4cccc(N5CCOc6cc(C7CC7)cc(F)c6C5=O)c4CO)ccnc3[nH]2)CC1` [Example P-19, 4-[4-[3-(8-cyclopropyl-6-fluoro-5-oxo-2,3-dihydro-1,4-benzoxazepin-4-yl)-2-(hydroxymethyl)phenyl]-1H-pyrrolo[2,3-b]pyridin-2-yl]-N,N-diethyl-3,6-dihydro-2H-pyridine-1-carboxamide], the 50% inhibitory concentration (IC50) in experiment [1] (setting [3]) was found to be 20 nM; in experiment [2] (setting [4]) it was 14.6 nM.

In the case of `CC1(O)CCN(Cc2ccc(-c3cc4c(-c5cccc(N6CCOc7cc(C8CC8)ccc7C6=O)c5CO)ncnc4[nH]3)cc2)CC1` [Example B-6, 8-cyclopropyl-4-[2-(hydroxymethyl)-3-[6-[4-[(4-hydroxy-4-methyl-1-piperidyl)methyl]phenyl]-7H-pyrrolo[2,3-d]pyrimidin-4-yl]phenyl]-2,3-dihydro-1,4-benzoxazepin-5-one], the half-inhibitory concentration (IC50) in experiment [1] (Mus musculus, read-out: Mouse spleenocyte IC50 (nM)) stood at 81 nM; in experiment [2], 7 nM.

`CC(C)N1CC(Oc2ccc(-c3cc4c(-c5cccc(N6CCOc7cc(C8CC8)ccc7C6=O)c5CO)ccnc4[nH]3)cn2)C1` [Example D-12, 8-cyclopropyl-4-[2-(hydroxymethyl)-3-[2-[6-(1-isopropylazetidin-3-yl)oxy-3-pyridyl]-1H-pyrrolo[2,3-b]pyridin-4-yl]phenyl]-2,3-dihydro-1,4-benzoxazepin-5-one]: the half-inhibitory concentration (IC50) in experiment [1] (setting [3]) came out at 261 nM; in experiment [2] (setting [4]), 11 nM.

As for `CC(O)C(=O)N1CC=C(c2cc3c(-c4cccc(N5CCOc6cc(C7CC7)cc(F)c6C5=O)c4CO)ccnc3[nH]2)CC1` (stereo not shown) [Example P-29, 8-cyclopropyl-6-fluoro-4-[2-(hydroxymethyl)-3-[2-[1-(2-hydroxypropanoyl)-3,6-dihydro-2H-pyridin-4-yl]-1H-pyrrolo[2,3-b]pyridin-4-yl]phenyl]-2,3-dihydro-1,4-benzoxazepin-5-one], the figures for the IC50 in experiment [1] (setting [3]) and in experiment [2] (setting [4]) were 8 nM and 1.3 nM, respectively.

Regarding `CN1CCC(c2ccc(-c3cc4c(-c5cccc(-n6ccc7cc(C8CC8)ccc7c6=O)c5CO)ncnc4[nH]3)cc2)CC1` [Example D-4, 6-cyclopropyl-2-[2-(hydroxymethyl)-3-[6-[4-(1-methyl-4-piperidyl)phenyl]-7H-pyrrolo[2,3-d]pyrimidin-4-yl]phenyl]isoquinolin-1-one], the results for the IC50 in experiment [1] (setting [3]) and in experiment [2] (setting [4]) were 19 nM and 3 nM, respectively.

Take `N#CCC(=O)N1CC=C(c2cc3c(-c4cccc(N5CCOc6cc(C7CC7)cc(F)c6C5=O)c4CO)ccnc3[nH]2)CC1` [Example P-27, 3-[4-[4-[3-(8-cyclopropyl-6-fluoro-5-oxo-2,3-dihydro-1,4-benzoxazepin-4-yl)-2-(hydroxymethyl)phenyl]-1H-pyrrolo[2,3-b]pyridin-2-yl]-3,6-dihydro-2H-pyridin-1-yl]-3-oxo-propanenitrile]: the IC50 in experiment [1] (setting [3]) was 50 nM; in experiment [2] (setting [4]), 1.2 nM.

As to `CCN1CC(n2cc(-c3cc4c(-c5cccc(N6CCOc7cc(C8CC8)ccc7C6=O)c5CO)ccnc4[nH]3)cn2)C1` [Example D-10, 8-cyclopropyl-4-[3-[2-[1-(1-ethylazetidin-3-yl)pyrazol-4-yl]-1H-pyrrolo[2,3-b]pyridin-4-yl]-2-(hydroxymethyl)phenyl]-2,3-dihydro-1,4-benzoxazepin-5-one], in experiment [1] (setting [3]), the 50% inhibitory concentration (IC50) came out at 76 nM.

Consider `CC1(O)CN(C(=O)c2ccc(-c3cc4c(-c5cccc(N6CCOc7cc(C8CC8)cc(F)c7C6=O)c5CO)ccnc4[nH]3)nc2)C1` [Example L-4, 8-cyclopropyl-6-fluoro-4-[2-(hydroxymethyl)-3-[2-[5-(3-hydroxy-3-methyl-azetidine-1-carbonyl)-2-pyridyl]-1H-pyrrolo[2,3-b]pyridin-4-yl]phenyl]-2,3-dihydro-1,4-benzoxazepin-5-one], for which the IC50 in experiment [2] (setting [4]) turned out to be 43 nM.

As for `Cc1c(-c2ncnc3[nH]c(-c4cccc(CN5CCOCC5)c4)cc23)cccc1N1CCc2cc(C3CC3)ccc2C1=O` [Example A-8, 6-cyclopropyl-2-[2-methyl-3-[6-[3-(morpholinomethyl)phenyl]-7H-pyrrolo[2,3-d]pyrimidin-4-yl]phenyl]-3,4-dihydroisoquinolin-1-one], in experiment [2] (setting [4]), the IC50 amounted to 825 nM.

For the molecule `Cc1c(-c2ncnc3[nH]c(-c4ccccc4)cc23)cccc1N1CCOc2cc(C3CC3)ccc2C1=O` [Example M-1, 8-cyclopropyl-4-[2-methyl-3-(6-phenyl-7H-pyrrolo[2,3-d]pyrimidin-4-yl)phenyl]-2,3-dihydro-1,4-benzoxazepin-5-one], the IC50 in experiment [2] (setting [4]) is more than 1000 nM.

As to `COC1CCN(C(=O)c2ccc(-c3cc4c(-c5cccc(N6CCOc7cc(C8CC8)ccc7C6=O)c5C)ncnc4[nH]3)cc2)CC1` [Example K-10, 8-cyclopropyl-4-[3-[6-[4-(4-methoxypiperidine-1-carbonyl)phenyl]-7H-pyrrolo[2,3-d]pyrimidin-4-yl]-2-methyl-phenyl]-2,3-dihydro-1,4-benzoxazepin-5-one], the IC50 in experiment [2] (setting [4]) turned out to be 233 nM.

Turning to `CN1CCN(Cc2ccc(-c3cc4c(-c5cccc(N6CCOc7cc(C8CC8)ccc7C6=O)c5)c(C#N)cnc4[nH]3)cc2)CC1` [Example P-6, 4-[3-(8-cyclopropyl-5-oxo-2,3-dihydro-1,4-benzoxazepin-4-yl)phenyl]-2-[4-[(4-methylpiperazin-1-yl)methyl]phenyl]-1H-pyrrolo[2,3-b]pyridine-5-carbonitrile], in experiment [2] (setting [4]), the IC50 was 82 nM.

As for `Cc1c(-c2ncnc3[nH]c(-c4ccc(CN5CCNC(=O)C5)cc4)cc23)cccc1N1CCc2cc(C3CC3)ccc2C1=O` [Example B-11, 6-cyclopropyl-2-[2-methyl-3-[6-[4-[(3-oxopiperazin-1-yl)methyl]phenyl]-7H-pyrrolo[2,3-d]pyrimidin-4-yl]phenyl]-3,4-dihydroisoquinolin-1-one], the IC50 in experiment [2] (setting [4]) turned out to be 254 nM.

Regarding `Cc1c(-c2ncnc3[nH]c(-c4ccc(C(=O)N5CCOCC5)cc4)cc23)cccc1N1CCc2cc(C3CC3)ccc2C1=O` [Example K-15, 6-cyclopropyl-2-[2-methyl-3-[6-[4-(morpholine-4-carbonyl)phenyl]-7H-pyrrolo[2,3-d]pyrimidin-4-yl]phenyl]-3,4-dihydroisoquinolin-1-one], the IC50 in experiment [2] (setting [4]) worked out at 130 nM.
